Results: ChEMBL document CHEMBL3992559, “Human carbonic anhydrase inhibitory profile of mono- and bis-sulfonamides synthesized via a direct sulfochlorination of 3- and 4-(hetero)arylisoxazol-5-amine scaffolds” (Bioorg Med Chem, 2017)

Assays:
[1] = biological target: Carbonic anhydrase 1 (Homo sapiens, UniProt P00915); assay: Inhibition of recombinant human carbonic anhydrase-1 assessed as reduction in enzyme-catalyzed hydration activity using CO2 as substrate preincubated for 15 mins followed substrate addition measured after 10 to 100 sec by phenol red dye based stopped flow assay
Carbonic anhydrase 1, sequence (P00915 whole entry): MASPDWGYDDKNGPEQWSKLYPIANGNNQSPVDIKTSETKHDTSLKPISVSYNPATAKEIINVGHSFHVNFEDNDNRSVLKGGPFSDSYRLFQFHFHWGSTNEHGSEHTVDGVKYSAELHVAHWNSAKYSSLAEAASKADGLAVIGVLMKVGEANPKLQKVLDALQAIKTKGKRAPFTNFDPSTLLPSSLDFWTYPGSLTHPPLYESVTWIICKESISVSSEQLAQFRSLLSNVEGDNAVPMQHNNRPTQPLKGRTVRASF

[2] = biological target: Carbonic anhydrase 2 (Homo sapiens, UniProt P00918); assay: Inhibition of recombinant human carbonic anhydrase-2 assessed as reduction in enzyme-catalyzed hydration activity using CO2 as substrate preincubated for 15 mins followed substrate addition measured after 10 to 100 sec by phenol red dye based stopped flow assay
[3] = biological target: Carbonic anhydrase 4 (Homo sapiens, UniProt P22748); assay: Inhibition of recombinant human carbonic anhydrase-4 assessed as reduction in enzyme-catalyzed hydration activity using CO2 as substrate preincubated for 15 mins followed substrate addition measured after 10 to 100 sec by phenol red dye based stopped flow assay
Carbonic anhydrase 4, sequence (P22748 whole entry): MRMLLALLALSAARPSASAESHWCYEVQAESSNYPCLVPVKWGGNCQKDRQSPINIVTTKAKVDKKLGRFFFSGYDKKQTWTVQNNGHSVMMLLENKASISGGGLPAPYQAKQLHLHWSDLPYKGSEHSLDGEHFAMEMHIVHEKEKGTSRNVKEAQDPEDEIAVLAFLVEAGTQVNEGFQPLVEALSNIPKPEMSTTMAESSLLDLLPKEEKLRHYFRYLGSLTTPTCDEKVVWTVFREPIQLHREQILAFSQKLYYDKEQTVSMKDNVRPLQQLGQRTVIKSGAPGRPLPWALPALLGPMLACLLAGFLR

[4] = biological target: Carbonic anhydrase 7 (Homo sapiens, UniProt P43166); assay: Inhibition of recombinant human carbonic anhydrase-7 assessed as reduction in enzyme-catalyzed hydration activity using CO2 as substrate preincubated for 15 mins followed substrate addition measured after 10 to 100 sec by phenol red dye based stopped flow assay
Carbonic anhydrase 7, sequence (P43166 whole entry): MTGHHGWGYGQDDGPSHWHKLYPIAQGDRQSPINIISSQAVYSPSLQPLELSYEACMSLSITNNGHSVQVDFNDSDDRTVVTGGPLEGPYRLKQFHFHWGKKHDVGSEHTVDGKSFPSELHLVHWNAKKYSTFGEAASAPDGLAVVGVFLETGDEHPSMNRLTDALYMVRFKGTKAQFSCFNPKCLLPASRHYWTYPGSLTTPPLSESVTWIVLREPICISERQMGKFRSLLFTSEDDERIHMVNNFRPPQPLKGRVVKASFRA

Measured: Ki

COc1ccc(-c2cc(NC(C)=O)on2)cc1S(N)(=O)=O
> 10 µM: all assays above

CC(=O)Nc1cc(-c2cc(S(N)(=O)=O)c(C)s2)no1
> 10 µM: [1] | [3] | [4]

COc1ccc(-c2c(C)noc2NC(C)=O)cc1S(N)(=O)=O
> 10 µM: all assays above

CC(=O)Nc1onc(C)c1-c1ccc(S(N)(=O)=O)c(C)c1
> 10 µM: [3]

CC(=O)Nc1cc(-c2ccc(C)c(S(N)(=O)=O)c2)no1
> 10 µM: [1] | [3]

COc1ccc(S(N)(=O)=O)c(-c2noc(N)c2S(N)(=O)=O)c1
> 10 µM: [1] | [3] | [4]

COc1ccc(S(N)(=O)=O)c(-c2cc(NC(C)=O)on2)c1
> 10 µM: all assays above

COc1ccc(S(N)(=O)=O)c(-c2c(C)noc2NC(C)=O)c1
> 10 µM: all assays above

COc1ccc(-c2noc(N)c2S(N)(=O)=O)cc1S(N)(=O)=O
> 10 µM: [1] | [4]
